Earlier results, collected in patent publication US4220642A, “Vasoactive lung polypeptides” (priority 1978, dated 1980).

Tests used:
[1] = system: rat stomach strip, rat colon; details: rat stomach strip and colon
[2] = system: guinea pig trachea, ileum, gallbladder, pulmonary artery, "lung"; details: trachea (F2 α)

| Compound | contraction of chick rectum by prostaglandins (chick rectum) | contraction of rat smooth-muscle organs by prostaglandins [1] | contraction of guinea pig smooth-muscle organs by prostaglandins [2] |
| --- | --- | --- | --- |
| CCCCC[C@H](O)/C=C/[C@H]1[C@H](O)CC(=O)[C@@H]1CCCCCCC(=O)O [Prostaglandin E1] | contract | contract | contract |
| CCCCC[C@H](O)/C=C/[C@H]1[C@H](O)CC(=O)[C@@H]1C/C=C\CCCC(=O)O [Prostaglandin E2] | contract | contract | contract |
| Prostaglandin F2 α | contracting | contracting | contracts |
